Assay results taken from patent US8063221B2, “Aminoquinolones as GSK-3 inhibitors” (Kyorin Pharmaceutical Co., Ltd., priority 2006, dated 2011).
In brackets after ≈: the same amount, converted by molar mass. Read-outs that look alike come from different tables or passages of the source. Each block holds one compound with its values, some of them ahead of it.

Assays:
[1] = Animal Study 1 (blood glucose in db/db mice); format: in vivo; details: 100 mg/kg orally, 0-6 hr after administration
Method: Animal Study 1 Male obese hyperglycemic mice (db/db) and lean mice (C57BL/6J) were obtained from Charles River Laboratories Japan (Yokohama, Japan). All mice were given a standard diet (Clea Japan, Tokyo, Japan) and tap water ad libitum. All institutional guidelines for animal care and use were applied in this study. Test compounds were suspended in 0.3% carboxymethyl-cellulose sodium salt (CMC-Na; Sigma, St. Louis, Mo.). After fasting for 2 hr, the test compounds (100 mg/kg) were administered orally to 7-week-old db/db mice. Vehicle (0.3% CMC-Na) was administered orally to both 7-week-old db/db mice and lean mice. Blood samples were collected from tail vein using capillary tubes containing EDTA·2K at 0, 0.5, 1, 2, 4, and 6 hr after the administration. The blood samples were centrifuged at 2,500×g for 5 min and separated plasma was kept on ice and analyzed in the same day. Plasma glucose levels were determined using the glucose CII-test (Wako Pure Chemical Industries, Osaka, Japan). CHIR99021 is a selective inhibitor of GSK3 enzyme known in the art (see, Ring D B et al., Selective GSK-3 inhibitors potentiate insulin activation of glucose transport and utilization in vitro and in vivo. Diabetes 2003, 52(3): 588-595).

[2] = Animal Study 2 (oral glucose tolerance test); set-up: species or system Crlj:CD1 (ICR) mice; details: Mus musculus, read-out: In vivo studies 300 mg/kg (oral glucose tolerance test, % decrease)
From the text: The results of in vivo oral glucose tolerance test (Example 39), expressed as % decrease, are presented as follows: […]
Animal Study 2 (Oral Glucose Tolerance Test)
Male Crlj:CD1 (ICR) mice were obtained from Charles River Laboratries Japan (Yokohama, Japan). All mice were given a standard diet (Clea Japan, Tokyo, Japan) and tap water ad libitum. All institutional guidelines for animal care and use were applied in this study. Test compounds were suspended in 0.3% carboxymethyl-cellulose sodium salt (CMC-Na; Sigma, St. Louis, Mo.). After fasting for 15-17 hr, the test compound (300 mg/kg) or vehicle (0.3% CMC-Na) was orally administered to 7-week-old ICR mice. Glucose solution (5 g/kg) was orally administered at 30 min after test compound treatment. Blood samples were collected from tail vein using capillary tubes containing EDTA·2K before test compound treatment, and at 0, 0.5, 1, and 2 hr after glucose load. The blood samples were centrifuged at 2,500×g for 5 min and separated plasma was kept on ice and analyzed in the same day. Plasma glucose levels were determined using the glucose C II-test (Wako Pure Chemical Industries, Osaka, Japan).
The sum of plasma glucose levels at 0.5 and 1 hr after glucose load was compared to that of vehicle treatment, and results were presented as percent decrease.

[3] = biological target: T1, recombinant full-length human GSK3β (Homo sapiens, UniProt P49841); assay: Luciferase-coupled cell-free GSK3β kinase assay; format: biochemical
T1 construct: recombinant full-length human GSK3β (Upstate); purchased Upstate
In short: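 GSK3β, 10-25 ng, was incubated with compound for 1 h at 30° C in MOPS pH 7.0 buffer containing 62.5 μM phospho-glycogen synthase peptide-2 and 5 μM ATP. Remaining ATP was read by KinaseGlo luminescence, and IC50 was fitted from % inhibition relative to maximal inhibition.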

S. aureus Smith = assay: Antibacterial activity (MIC), S. aureus; format: cell-based; details: Staphylococcus aureus
In short: (§1)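 MIC, the lowest compound concentration inhibiting bacterial growth in culture medium, determined by dilution method per CLSI M7-A4 guidance; reported in μM.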

E. coli, ATCC8739 = assay: Antibacterial activity (MIC), E. coli; format: cell-based; details: Escherichia coli
In short: as §1

[4] = Table 2, 300 mg/kg oral, ICR mice, plasma glucose 0.5 and 1 hr after glucose load vs vehicle
[5] = Table 2, S. aureus Smith, read-out: Antimicrobial MIC [μM] S. aureus
[6] = ATCC8739, Table 2, E. coli ATCC8739, read-out: Antimicrobial MIC [μM] E. Coli
[7] = Table 1, 300 mg/kg oral, ICR mice, plasma glucose 0.5 and 1 hr after glucose load vs vehicle
[8] = Table 1, read-out: Antibacterial MIC (μM) S. aureus Smith
[9] = ATCC8739, Table 1, E. coli ATCC8739, read-out: Antibacterial MIC (μM) E.Coli

T1 sequence (P49841 whole entry): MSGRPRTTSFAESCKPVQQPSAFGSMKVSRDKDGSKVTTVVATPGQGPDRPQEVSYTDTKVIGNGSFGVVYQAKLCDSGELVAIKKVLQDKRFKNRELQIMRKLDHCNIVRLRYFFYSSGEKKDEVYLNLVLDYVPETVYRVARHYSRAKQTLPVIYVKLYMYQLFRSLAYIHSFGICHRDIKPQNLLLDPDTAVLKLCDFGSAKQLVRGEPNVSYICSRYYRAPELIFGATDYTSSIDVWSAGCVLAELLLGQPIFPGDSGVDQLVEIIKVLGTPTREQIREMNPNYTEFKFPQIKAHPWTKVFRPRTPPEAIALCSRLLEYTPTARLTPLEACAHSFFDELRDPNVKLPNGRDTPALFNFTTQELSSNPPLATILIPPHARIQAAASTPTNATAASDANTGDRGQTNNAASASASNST

SMILES: Cc1c[nH]c(-c2cnc(NCCNc3ccc(C#N)cn3)nc2-c2ccc(Cl)cc2Cl)n1 [CHIR99021]
blood glucose levels (FIG. 1) [1]: drop in blood glucose levels

SMILES: C[C@H]1COc2c(NCCCn3ccnc3)c(F)c(N)c3c(=O)c(C#N)cn1c23 [Example 114]
inhibition in vivo at 300 mg/kg [2, 4]: > 20%
IC50 ([3]; Table 2): < 100 nM

SMILES: C[C@H]1COc2c(NCCCc3ccccn3)c(F)c(N)c3c(=O)c(C#N)cn1c23 [Example 115]
inhibition in vivo at 300 mg/kg [2, 4]: < 5%
IC50 ([3]; Table 2): < 100 nM

SMILES: Nc1c(F)c(NCCNc2ccccn2)cc2c1c(=O)c(C(=O)O)cn2CCc1ccccc1 [Example 119]
inhibition in vivo at 300 mg/kg [2, 4]: < 5%
IC50 ([3]; Table 2): < 100 nM
MIC (S. aureus Smith; [5]): 10 to 50 µM (≈ 4.61 to 23.1 µg/mL)
MIC (E. coli, ATCC8739; [6]): 10 to 50 µM (≈ 4.61 to 23.1 µg/mL)

SMILES: CC1(C)CCOc2c(NCCNc3ccccn3)c(F)c(N)c3c(=O)c(C(=O)O)cn1c23 [Example 139]
inhibition in vivo at 300 mg/kg [2, 4]: > 20%
IC50 ([3]; Table 2): 100 to 500 nM
MIC (S. aureus Smith; [5]): > 50 µM
MIC (E. coli, ATCC8739; [6]): > 50 µM

SMILES: C[C@H]1COc2c(NCCNc3ccccn3)c(F)c(N)c3c(=O)c(C(=O)O)cn1c23 [compound 18]
inhibition in vivo at 300 mg/kg [2, 4]: 10 to 20%
IC50 ([3]; Table 2): < 100 nM
MIC (S. aureus Smith; [5]): 0.5 to 10 µM (≈ 0.207 to 4.13 µg/mL)
MIC (E. coli, ATCC8739; [6]): 0.5 to 10 µM (≈ 0.207 to 4.13 µg/mL)

SMILES: C[C@@H]1COc2c(NCCNc3ccccn3)c(F)c(N)c3c(=O)c(C(=O)O)cn1c23 [compound 31]
inhibition in vivo at 300 mg/kg ([2]; po): > 20%
IC50 ([3]; Table 2): 100 to 500 nM
MIC (S. aureus Smith; read-out: Antimicrobial MIC [μM] S. aureus): 10 to 50 µM (≈ 4.13 to 20.7 µg/mL)
MIC (E. coli, ATCC8739; ATCC8739, read-out: Antimicrobial MIC [μM] E. Coli): 10 to 50 µM (≈ 4.13 to 20.7 µg/mL)

SMILES: CC1(C)COc2c(NCCCn3ccnc3)c(F)c(N)c3c(=O)c(C(=O)O)cn1c23 [compound 33]
inhibition in vivo at 300 mg/kg [2, 4]: > 20%
IC50 ([3]; Table 2): 100 to 500 nM
MIC (S. aureus Smith; [5]): > 50 µM
MIC (E. coli, ATCC8739; [6]): > 50 µM

SMILES: CC1(C)Cn2cc(C(=O)O)c(=O)c3c(N)c(F)c(NCCNc4ccccn4)c(c32)O1 [compound 57]
inhibition in vivo at 300 mg/kg [2, 4]: > 20%
IC50 ([3]; Table 2): 100 to 500 nM
MIC (S. aureus Smith; [5]): 10 to 50 µM (≈ 4.27 to 21.4 µg/mL)
MIC (E. coli, ATCC8739; [6]): 10 to 50 µM (≈ 4.27 to 21.4 µg/mL)

The next lines start with results.

IC50 ([3]; Table 1): 100 to 500 nM
MIC (S. aureus Smith; [8]): > 50 µM
MIC (E. coli, ATCC8739; [9]): > 50 µM
SMILES: Nc1c(F)c(NCCCn2ccnc2)c(F)c2c1c(=O)ccn2CCc1ccccc1 [compound 62]
inhibition in vivo at 300 mg/kg [2, 7]: 5 to 10%

IC50 ([3]; Table 2): < 100 nM
SMILES: C[C@H]1COc2c(NCCCN3CCCc4ccccc43)c(F)c(N)c3c(=O)c(C(=O)O)cn1c23 [compound 67]
inhibition in vivo at 300 mg/kg [2, 4]: 10 to 20%

IC50 ([3]; Table 1): < 100 nM
MIC (S. aureus Smith; [8]): 0.5 to 10 µM (≈ 0.238 to 4.77 µg/mL)
MIC (E. coli, ATCC8739; [9]): > 50 µM
SMILES: COc1c(NCCNc2cccc3ccccc23)c(F)c(N)c2c(=O)c(C(=O)O)cn(C3CC3)c12 [compound 70]
inhibition in vivo at 300 mg/kg [2, 7]: < 5%

IC50 ([3]; Table 2): < 100 nM
SMILES: C[C@H]1COc2c(NCCCc3ccccn3)c(F)c(N)c3c(=O)c(C(=O)O)cn1c23 [compound 70]
inhibition in vivo at 300 mg/kg [2, 4]: > 20%

IC50 ([3]; Table 1): 100 to 500 nM
MIC (S. aureus Smith; [8]): 0.5 to 10 µM (≈ 0.214 to 4.27 µg/mL)
MIC (E. coli, ATCC8739; [9]): 0.5 to 10 µM (≈ 0.214 to 4.27 µg/mL)
SMILES: COc1c(NCCNc2ccccn2)c(F)c(N)c2c(=O)c(C(=O)O)cn(C3CC3)c12 [compound 71]
inhibition in vivo at 300 mg/kg [2, 7]: 10 to 20%

IC50 ([3]; Table 2): < 100 nM
SMILES: C[C@H]1COc2c(NCCCc3ccc(F)cc3)c(F)c(N)c3c(=O)c(C(=O)O)cn1c23 [compound 72]
inhibition in vivo at 300 mg/kg [2, 4]: > 20%

IC50 ([3]; Table 2): < 100 nM
SMILES: CCN(CCCNc1c(F)c(N)c2c(=O)c(C(=O)O)cn3c2c1OC[C@@H]3C)c1ccccc1 [compound 76]
inhibition in vivo at 300 mg/kg [2, 4]: > 20%

IC50 ([3]; Table 2): < 100 nM
SMILES: C[C@H]1COc2c(NCCCNC(=O)C34CC5CC(CC(C5)C3)C4)c(F)c(N)c3c(=O)c(C(=O)O)cn1c23 [compound 80]
inhibition in vivo at 300 mg/kg [2, 4]: 5 to 10%
